From EP0447704A1, “N-Acylated azacyclic compounds, processes for their preparations and their use as medications” (Smithkline Beecham Farmaceutici S.p.A., priority 1990, dated 1991)
Where a name gives a salt, the structure may show the parent alone.

Tests used:
[1] = test system: mice; assay: p-phenylquinone-induced abdominal writhing test in mice; format: in vivo, Male Charles River mice (Swiss Strain); conditions: subcutaneous, 20 min pretreatment, graded protection, limits in brackets; for ED50: Mus musculus, sc, 20 min, read-out: ANALGESIA M. WRITHING (GRADED) ED50
Protocol: A) p-phenylquinone-induced abdominal writhing test in mice
The methodology employed is based on that described by Sigmund et al, Proc. Soc. Exptl. Biol. 95, 729/1957, modified by Milne and Twomey, Agents and Actions, 10, 31/1980.
Male Charles River mice (Swiss Strain), 25-36g body weight, were used. Animals were allowed food and water ad libitum and were randomized into groups of 10 prior to experimentation. Test compounds were dissolved in either distilled water or distilled water plus 0.1 M AMS, and administered by the subcutaneous route in a final volume of 10 ml/Kg. Control animals received 10 ml/Kg of the appropriate vehicle alone. Following a pretreatment period of 20 min., mice were injected intraperitoneally with p-phenylquinone, 2 mg/Kg at 37 °C in a final volume of […]. […] During this period the number of abdominal writhing responses per animal were recorded where writhing consists of an intermittent contraction of the abdomen associated with hind leg extension.
The degree of antinociceptive protection afforded by the test compound was determined as the mean number of writhing responses observed in the treated group (T) expressed as a percentage of the mean number of writhing responses in the control group (C) according to the following formula: [1-(T/C]x100% = % graded protection

[2] = test system: mice; assay: Tail-flick test in mice; format: in vivo, Male Charles River mice (Swiss Strain); conditions: for ED50: Mus musculus, 0.5 h, read-out: ANALGESIA M. TAIL-FLICK (QUANTAL) ED50; for ED50 / ANALGESIA M. TAIL-FLICK (QUANTAL) ED50: subcutaneous, 30 min pretreatment, quantal protection, limits in brackets; for ANALGESIA M. TAIL-FLICK (QUANTAL) ED50: 30 min; for M. TAIL-FLICK (QUANTAL) % protection: at 10 mg
Protocol: B) Tail-flick test in mice
The methodology employed is based on that described by D'Amour and Smith, J. Pharmacol. Exp. Ther. 72, 74/1941.
Male Charles River mice (Swiss Strain), 22-34g body weight were used. Animals were allowed food and water ad libitum and were randomized into groups of 10 prior to experimentation.
Test compounds were dissolved in either distilled water or distilled water plus 0.1 M AMS and administered by the subcutaneous route in a final volume of 10 ml/Kg. Control animals received 10 ml/kg of the appropriate vehicle alone. Following a pretreatment period of 30 min., the mice were again placed under the heat source and the reaction tine re-determined.
Percentage quantal protection was determined as the number of mice in which the reaction time was doubled compared to pretreatment values, expressed as a percentage of the total number of mice in the group.

## CC1(C)CCCN(C(=O)Cc2ccc(C(F)(F)F)cc2)C1CN1CCCC1 (racemic) [Example 10, 1-(4-trifluoromethylphenyl)acetyl-2-(pyrrolidin-1-yl)methyl-3,3-dimethyl piperidine hydrochloride]
[1]
  ED50: 0.023 mg/kg
[2]; sc
  ED50: 0.116 mg/kg

## CC1CCCN(C(=O)Cc2ccc(Cl)c(Cl)c2)C1CN1CCCC1 (single isomer, unassigned) [Example 1, 1-(3,4-dichlorophenyl)acetyl-2-(pyrrolidin-1-yl)methyl-3-methyl piperidine hydrochloride hemihydrate diasteroisomer A]
[2]
  ANALGESIA M. TAIL-FLICK (QUANTAL) ED50: 0.405 (0.230-0.607) mg/Kg sc

## CC1CCCN(C(=O)Cc2ccc(Cl)c(Cl)c2)C1CN1CCCC1 (single isomer, unassigned) [Example 2, 1-(3,4-dichlorophenyl)acetyl-2-(pyrrolidin-1-yl)methyl-3-methyl piperidine hydrochloride diasteroisomer B]
[1]
  ANALGESIA M. WRITHING (GRADED) ED50: 0.091 (0.075-0.112) mg/Kg sc
[2]
  ANALGESIA M. TAIL-FLICK (QUANTAL) ED50: 0.147 (0.091-0.237) mg/Kg sc

## CC1CCCC(CN2CCCC2)N1C(=O)Cc1ccc(Cl)c(Cl)c1 (single isomer, unassigned; diastereoisomer a) [Example 6, 1-(3,4-dichlorophenyl)acetyl-2-(pyrrolidin-1-yl)methyl-6-methyl piperidine hydrochloride hemihydrate Diastereoisomer A]
[2]; sc, 1.78 mg/Kg
  M. TAIL-FLICK (QUANTAL) % protection at single dose: (1.78 mg/Kg 60%)

## O=C(Cc1ccc(Cl)c(Cl)c1)N1CCCC(O)C1CN1CCCC1 (single isomer, unassigned; diastereoisomer a) [Example 7, 1-(3,4-dichlorophenyl)acetyl-2-(pyrrolidin-1-yl)methyl-3-hydroxy piperidine hydrochloride diastereoisomer A trans]
[1]
  ED50: 0.141 mg/kg
[2]; sc
  ED50: 0.825 mg/kg
[2]; dose = mouse tail-flick quantal ED50, 30'
  DURATION OF ACTION M. TAIL-FLICK (GRADED) % ACTIVITY AT MTFQ ED50 30': 87%
[2]; dose = mouse tail-flick quantal ED50, 90'
  DURATION OF ACTION M. TAIL-FLICK (GRADED) % ACTIVITY AT MTFQ ED50 90': 39%

## O=C(Cc1ccc(Cl)c(Cl)c1)N1CCCC(O)C1CN1CCCC1 (single isomer, unassigned; diastereoisomer b) [Example 8, 1-(3,4-dichlorophenyl)acetyl-2-(pyrrolidin-1-yl)methyl-3-hydroxy piperidine hydrochloride diastereoisomer B cis]
[2]; sc
  M. TAIL-FLICK (QUANTAL) % protection: at 10 mg = 20% protection

## CC1(C)CCCN(C(=O)Cc2ccc3c(c2)CCCC3=O)C1CN1CCCC1 (stereo not drawn) [Example 13, 1-[1-oxo-3,4-dihydro-(2H)-napht-6-yl]acetyl-2-(pyrrolidin-1-yl)methyl-3,3-dimethyl piperidine]
[2]; sc
  M. TAIL-FLICK (QUANTAL) % protection: at 10 mg = 60% protection
